Assay [1] has as its system Rattus norvegicus. Description: Inhibition of carrageenan-induced edema in Wistar rat paw at 0.04 mg/kg to 0.51 mg/kg, po. Type of assay: functional, organism-based. In general terms: Carrageenan injected into the paw causes an acute inflammation.
In assay [2] the test system is Rattus norvegicus. Description: Inhibition of carrageenan-induced edema in Wistar rat paw at 20 mg/kg, po after 3 hrs. Type of assay: functional. Also noted: scale not given: the % may be the effect or the level left.
For assay [3], the system named is Rattus norvegicus. The assay is described as follows: Inhibition of carrageenan-induced edema in po dosed Wistar rat paw. Type of assay: functional.
The subject of assay [4] is Rattus norvegicus. Description: Inhibition of carrageenan-induced edema in Wistar rat paw at 5 mg/kg, po. Type of assay: functional, organism-based. Further details: dose 5 mg/kg.

Calls of active or inactive are those of the source. No cut-off for these calls is given here.

For the compound `C[C@H]1[C@H](C)CC[C@]2(C(=O)O[C@@H]3O[C@H](CO)[C@@H](O)[C@H](O)[C@H]3O)CC[C@]3(C(=O)O)C(=CC[C@@H]4[C@@]5(C)CC[C@H](O[C@@H]6O[C@H](C)[C@@H](O)[C@H](O)[C@H]6O)C(C)(C)[C@@H]5CC[C@]43C)[C@H]12`, the outcome in the assay with Rattus norvegicus [1] was inactive. The same measure, in the same setting: the entry for `C[C@H]1[C@H](C)CC[C@]2(C(=O)O)CC[C@]3(C(=O)O[C@@H]4O[C@H](CO)[C@@H](O)[C@H](O)[C@H]4O)C(=CC[C@@H]4[C@@]5(C)CC[C@H](O[C@@H]6O[C@H](C)[C@H](O)[C@H](O)[C@H]6O)C(C)(C)[C@@H]5CC[C@]43C)[C@H]12` is “inactive”.

Regarding `C[C@H]1[C@H](C)CC[C@]2(C(=O)O)CC[C@]3(C(=O)O[C@@H]4O[C@H](CO)[C@@H](O)[C@H](O)[C@H]4O)C(=CC[C@@H]4[C@@]5(C)CC[C@H](O[C@@H]6O[C@H](C)[C@@H](O)[C@H](O)[C@H]6O)C(C)(C)[C@@H]5CC[C@]43C)[C@H]12`, the outcome in the assay on Rattus norvegicus [1] was inactive. This compound displayed an Activity in the assay on Rattus norvegicus [2] of 33%. Consider `C[C@H]1[C@H](C)CC[C@]2(C(=O)O[C@@H]3O[C@H](CO)[C@@H](O)[C@H](O)[C@H]3O)CC[C@]3(C(=O)O)C(=CC[C@@H]4[C@@]5(C)CC[C@H](O[C@@H]6O[C@H](C)[C@H](O)[C@H](O)[C@H]6O)C(C)(C)[C@@H]5CC[C@]43C)[C@H]12`, for which the outcome in the assay with Rattus norvegicus [1] was inactive. For the compound `C[C@H]1[C@H](C)CC[C@]2(C(=O)O)CC[C@]3(C)C(=CC[C@@H]4[C@@]5(C)CC[C@H](O)C(C)(C)[C@@H]5CC[C@]43C)[C@H]12`, in the assay with Rattus norvegicus [1], the outcome was inactive. Consider `COC(=O)[C@]12CC[C@@H](C)[C@@](C)(O)[C@H]1C1=CC[C@@H]3[C@@]4(C)CC[C@H](O)[C@@](C)(C(=O)OC)[C@@H]4[C@H](O)C[C@@]3(C)[C@]1(C)CC2`, for which, in the assay on Rattus norvegicus [1], the result was inactive. As to `CC1(C)CC[C@]2(C(=O)O)CC[C@]3(C)C(=CC[C@@H]4[C@@]5(C)CC[C@H](O)C(C)(C)[C@@H]5CC[C@]43C)[C@@H]2C1`, the outcome in the assay on Rattus norvegicus [1] and in the assay on Rattus norvegicus [2] was inactive.

For the compound `C[C@@H]1CC[C@]2(C(=O)O)CC[C@]3(C)C(=CC[C@@H]4[C@@]5(C)CC[C@H](O)C(C)(C)[C@@H]5[C@H](O)C[C@]43C)[C@@H]2[C@]1(C)O`, the result with Rattus norvegicus [1] and in the assay with Rattus norvegicus [2] was inactive. For `C[C@H]1[C@H](C)CC[C@]2(C(=O)O)CC[C@]3(C(=O)O[C@@H]4O[C@H](CO)[C@@H](O)[C@H](O)[C@H]4O)C(=CC[C@@H]4[C@@]5(C)CC[C@H](O[C@@H]6O[C@H](C)[C@H](O)[C@H](O[C@@H]7O[C@H](CO)[C@@H](O)[C@H](O)[C@H]7O)[C@H]6O)C(C)(C)[C@@H]5CC[C@]43C)[C@H]12`, in the assay on Rattus norvegicus [1], the result was inactive.

Turning to `C=C[C@H]1[C@H](O[C@@H]2O[C@H](CO)[C@@H](O)[C@H](O)[C@H]2O)OC=C(C(=O)OC)[C@H]1C[C@@H]1N[C@@H](C(=O)O)Cc2c1[nH]c1ccccc21`, the result in the assay on Rattus norvegicus [1] was inactive. Regarding `C[C@H]1[C@H](C)CC[C@]2(C(=O)O[C@@H]3O[C@H](CO)[C@@H](O)[C@H](O)[C@H]3O)CC[C@]3(C(=O)O)C(=CC[C@@H]4[C@@]5(C)CC[C@H](O[C@@H]6O[C@H](C)[C@H](O)[C@H](O[C@@H]7O[C@H](CO)[C@@H](O)[C@H](O)[C@H]7O)[C@H]6O)C(C)(C)[C@@H]5CC[C@]43C)[C@H]12`, the result with Rattus norvegicus [1] was inactive. Take `C[C@H]1[C@H](C)CC[C@]2(C(=O)O)CC[C@]3(C(=O)O)C(=CC[C@@H]4[C@@]5(C)CC[C@H](O[C@@H]6O[C@H](C)[C@H](O)[C@H](O[C@@H]7O[C@H](CO)[C@@H](O)[C@H](O)[C@H]7O)[C@H]6O)C(C)(C)[C@@H]5CC[C@]43C)[C@H]12`: in the assay with Rattus norvegicus [1], the result was inactive.

Turning to `COc1ccc2c(c1)c(CC(=O)O)c(C)n2C(=O)c1ccc(Cl)cc1` [INDOMETHACIN], the ED50 with Rattus norvegicus [3] came to 0.014 mmol. Moreover, in the assay with Rattus norvegicus [4], the outcome was Active.

The values are drawn from ChEMBL document CHEMBL1158949, “Plant metabolites. New compounds and anti-inflammatory activity of Uncaria tomentosa” (1991).
